Measurements taken from patent US20250009753A1, “METHODS FOR TREATING IMMUNE REFRACTORY LUNG CANCER” (Revolution Medicines, Inc., priority 2022, published 2025).

Test system: eLL2 KRASWT/G12C NRAS−/− A2 tumors
Test: Immune cell infiltration in tumors by flow cytometry
Format: in vivo, mouse
Conditions: 24 hours post 4 days of treatment, Compound A 200 mg/kg po qd, RMC-4550 30 mg/kg po qd, anti-PD-1 10 mg/kg ip qw
Description: Methods: Effects of Compound A (Ex. A556 of Table 1). dosed at 200 mg/kg po qd, RMC-4550 dosed at 30 mg/kg po qd, anti-PD-1 dosed at 10 mg/kg ip qw and the combination therapies on the immune cell infiltration in the eLL2 KRASWT/G12C NRAS−/− A2 tumors have been evaluated 24 hours post 4 days of treatment in 3 mice/group by flow cytometry. Tumor tissue was minced, processed with the Miltenyi Biotec Mouse Tumor Dissociation Kit or the Dri Tumor & Tissue Dissociation Reagent from BD Biosciences, and homogenized with the gentleMACS™ Dissociator. The cell suspension was incubated at 4° C. for 30 minutes with Mouse BD Fc Block (Clone 2.4G2 from BD Pharmingen), 10 minutes with Blue Dead Cell Stain Kit (from Invitrogen) and 30 min in cell staining buffer. Antibodies used targeted CD45 (Clone 30-F11 from BD Biosciences), CD19 (Clone 1D3 from BD Biosciences, CD3E (Clone145-2C11 from Biolegend), CD8b (Clone H35-17.2 from BD Biosciences), CD4 (Clone GK1.5 from Biolegend), CD11b (Clone M1/70 from Biolegend), F4/80 (Clone BM8 from Biolegend), Ly-6G (Clone 1A8 from BD Biosciences) and Ly-6C (Clone HK1.4 from Biolegend).

## Cc1nc(N2CCC3(CC2)CO[C@@H](C)[C@H]3N)c(CO)nc1-c1cccc(Cl)c1Cl [RMC-4550]
  Ly6G+ myeloid suppressor cells: significantly decreased
